Reference: ChEMBL document CHEMBL1201862, “PubChem BioAssay data set” (2004)
Values joined by “and” are separate entries in the source; they are usually repeats but may differ in a detail not shown here. Equal values may be shown once. Active and inactive are the calls of the source.

Assays:
[1] = target: Cytochrome P450 3A4 (Homo sapiens, UniProt P08684);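 note: CYP3A4 tested as one member of a cytochrome P450 panel screen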
[2] = target: Cytochrome P450 2D6 (Homo sapiens, UniProt P10635);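 note: CYP2D6 member of a cytochrome P450 panel assay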
[3] = target: T1, Protein skinhead-1 (Caenorhabditis elegans, UniProt P34707); assay type: functional
T1 sequence (P34707 whole entry): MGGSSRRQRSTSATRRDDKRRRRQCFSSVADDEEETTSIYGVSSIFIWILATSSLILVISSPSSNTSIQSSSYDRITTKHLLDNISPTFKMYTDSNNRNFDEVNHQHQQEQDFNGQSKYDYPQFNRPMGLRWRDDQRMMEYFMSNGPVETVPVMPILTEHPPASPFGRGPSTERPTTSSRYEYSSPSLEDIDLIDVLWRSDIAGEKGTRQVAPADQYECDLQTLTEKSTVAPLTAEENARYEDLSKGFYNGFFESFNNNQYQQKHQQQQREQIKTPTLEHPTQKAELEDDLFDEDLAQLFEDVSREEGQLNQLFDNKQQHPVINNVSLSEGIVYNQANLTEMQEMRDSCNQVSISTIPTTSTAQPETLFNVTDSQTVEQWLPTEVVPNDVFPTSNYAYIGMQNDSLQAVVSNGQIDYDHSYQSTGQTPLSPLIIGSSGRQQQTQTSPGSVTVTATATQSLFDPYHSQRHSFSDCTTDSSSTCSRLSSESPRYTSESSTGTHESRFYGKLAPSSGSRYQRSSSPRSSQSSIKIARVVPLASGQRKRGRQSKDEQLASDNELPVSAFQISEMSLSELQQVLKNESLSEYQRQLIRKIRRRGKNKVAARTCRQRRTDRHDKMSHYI

[4] = target: T2, Heat shock factor protein 1 (Mus musculus, UniProt P38532); assay: decrease of HSF1-responsive luciferase luminescence – cell-based, NIH3T3, dose retest, confirmation (AID 2382); assay type: functional;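 note: NIH3T3 fibroblasts with HSF1-driven luciferase reporter stressed by proteasome inhibitor MG132; luminescence from HSF1-driven luciferase expression after 8 hours of MG132 stress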
T2 sequence (P38532 whole entry): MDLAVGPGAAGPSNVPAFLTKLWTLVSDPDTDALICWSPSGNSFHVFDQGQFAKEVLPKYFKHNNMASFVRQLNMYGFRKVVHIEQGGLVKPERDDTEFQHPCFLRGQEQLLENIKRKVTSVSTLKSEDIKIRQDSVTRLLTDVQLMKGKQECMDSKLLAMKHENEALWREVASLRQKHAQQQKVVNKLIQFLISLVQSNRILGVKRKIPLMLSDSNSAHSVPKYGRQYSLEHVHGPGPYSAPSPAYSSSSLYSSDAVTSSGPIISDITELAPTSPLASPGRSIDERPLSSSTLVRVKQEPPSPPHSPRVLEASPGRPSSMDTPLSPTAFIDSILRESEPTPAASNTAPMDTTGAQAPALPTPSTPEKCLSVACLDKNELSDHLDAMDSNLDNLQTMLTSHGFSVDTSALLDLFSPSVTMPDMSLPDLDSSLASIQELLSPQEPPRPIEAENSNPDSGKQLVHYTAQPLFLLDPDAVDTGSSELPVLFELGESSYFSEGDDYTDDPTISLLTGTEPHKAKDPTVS

[5] = target: T3, Cytochrome P450 1A2 (Homo sapiens, UniProt P05177);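 note: PubChem cytochrome P450 panel assay, CYP1A2 panel member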
T3 sequence (P05177 whole entry): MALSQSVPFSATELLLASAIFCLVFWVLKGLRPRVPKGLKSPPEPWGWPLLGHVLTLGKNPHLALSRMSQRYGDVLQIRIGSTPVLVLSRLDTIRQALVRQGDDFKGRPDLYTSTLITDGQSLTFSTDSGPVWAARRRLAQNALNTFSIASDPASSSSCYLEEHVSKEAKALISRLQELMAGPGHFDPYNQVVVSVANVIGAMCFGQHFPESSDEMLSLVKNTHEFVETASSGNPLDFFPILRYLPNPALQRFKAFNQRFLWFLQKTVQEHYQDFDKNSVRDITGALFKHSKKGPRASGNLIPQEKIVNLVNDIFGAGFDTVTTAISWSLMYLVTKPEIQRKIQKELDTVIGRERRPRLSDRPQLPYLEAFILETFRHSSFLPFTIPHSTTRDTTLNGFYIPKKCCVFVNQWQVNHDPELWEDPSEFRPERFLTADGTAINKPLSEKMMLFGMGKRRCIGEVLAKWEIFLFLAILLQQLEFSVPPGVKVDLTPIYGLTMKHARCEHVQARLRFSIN

[6] = Luminescence Cell-Based Dose Response HTS to Identify Inhibitors of 5'UTR Stem-Loop Driven Prion Protein mRNA Translation in H4 Neuroglioblastoma Cells. [Related pubchem assays: 1827 (Project Summary), 1813 (Primary HTS)]; assay type: functional
[7] = alpha-synuclein stem-loop luciferase translation blockers – H4 neuroglioma cells, luminescence, confirmation (AID 1988); assay type: functional, cell-based
[8] = luciferase reporter signal suppression in cells – H4 neuroglioma cells, luminescence, dose response (AID 1990); assay type: functional, cell-based
[9] = target: Cytochrome P450 2C9 (Homo sapiens, UniProt P11712)
[10] = target: Cytochrome P450 2C19 (Homo sapiens, UniProt P33261); assay: Cytochrome panel assay with activity outcomes. Panel member name: p450-cyp2c19 Compounds with AC50 equal or less than 10 uM are considered active; assay type: functional
[11] = NIH-3T3 fibroblast cytotoxicity, dose response, cytotoxicity control, cell-based, fluorescence, Alamar Blue, secondary assay (AID 2327); assay type: functional;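 note: NIH-3T3 mouse fibroblasts cultured with fluconazole at 8 µg/mL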

Sequence of Cytochrome P450 2C19 (P33261 whole entry): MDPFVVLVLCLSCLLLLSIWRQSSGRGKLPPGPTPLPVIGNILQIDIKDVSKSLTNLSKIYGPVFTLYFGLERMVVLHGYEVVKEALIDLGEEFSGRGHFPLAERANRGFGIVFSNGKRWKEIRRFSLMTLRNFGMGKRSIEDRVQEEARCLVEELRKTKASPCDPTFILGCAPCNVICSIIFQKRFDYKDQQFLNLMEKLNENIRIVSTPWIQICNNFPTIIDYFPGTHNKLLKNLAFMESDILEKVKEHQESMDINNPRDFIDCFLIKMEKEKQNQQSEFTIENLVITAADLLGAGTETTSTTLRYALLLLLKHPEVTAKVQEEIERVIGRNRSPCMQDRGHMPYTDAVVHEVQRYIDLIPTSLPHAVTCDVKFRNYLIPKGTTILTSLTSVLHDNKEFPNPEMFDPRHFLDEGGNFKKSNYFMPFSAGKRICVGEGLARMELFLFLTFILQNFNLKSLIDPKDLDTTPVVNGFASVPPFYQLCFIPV
Sequence of Cytochrome P450 3A4 (P08684 whole entry): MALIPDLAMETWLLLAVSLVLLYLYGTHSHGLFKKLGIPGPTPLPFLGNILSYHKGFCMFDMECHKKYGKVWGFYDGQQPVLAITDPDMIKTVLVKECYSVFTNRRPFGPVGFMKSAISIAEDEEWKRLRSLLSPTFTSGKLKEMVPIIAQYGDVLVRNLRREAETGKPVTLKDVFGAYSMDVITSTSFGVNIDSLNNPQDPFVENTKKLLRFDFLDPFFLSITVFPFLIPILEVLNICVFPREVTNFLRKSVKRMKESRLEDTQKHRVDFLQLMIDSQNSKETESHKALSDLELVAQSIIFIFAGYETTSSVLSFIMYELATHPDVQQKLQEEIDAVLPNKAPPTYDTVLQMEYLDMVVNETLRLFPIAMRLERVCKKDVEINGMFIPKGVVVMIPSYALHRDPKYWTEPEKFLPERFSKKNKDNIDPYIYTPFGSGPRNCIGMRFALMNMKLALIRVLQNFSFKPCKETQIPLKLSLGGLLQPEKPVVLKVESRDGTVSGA
Sequence of Cytochrome P450 2D6 (P10635 whole entry): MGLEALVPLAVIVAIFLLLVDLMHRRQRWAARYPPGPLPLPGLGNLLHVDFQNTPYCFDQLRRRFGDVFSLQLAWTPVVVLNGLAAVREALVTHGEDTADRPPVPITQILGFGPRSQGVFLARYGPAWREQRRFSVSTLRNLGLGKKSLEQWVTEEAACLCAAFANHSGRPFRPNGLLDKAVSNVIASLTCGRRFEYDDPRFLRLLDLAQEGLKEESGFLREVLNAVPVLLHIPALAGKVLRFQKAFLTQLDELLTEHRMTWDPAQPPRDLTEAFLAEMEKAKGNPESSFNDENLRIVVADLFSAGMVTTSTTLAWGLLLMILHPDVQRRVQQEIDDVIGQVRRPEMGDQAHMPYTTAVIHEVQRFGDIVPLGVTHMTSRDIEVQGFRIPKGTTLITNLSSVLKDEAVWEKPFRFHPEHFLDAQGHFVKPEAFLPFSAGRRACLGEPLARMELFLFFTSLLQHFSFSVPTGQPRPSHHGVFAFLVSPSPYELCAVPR
Sequence of Cytochrome P450 2C9 (P11712 whole entry): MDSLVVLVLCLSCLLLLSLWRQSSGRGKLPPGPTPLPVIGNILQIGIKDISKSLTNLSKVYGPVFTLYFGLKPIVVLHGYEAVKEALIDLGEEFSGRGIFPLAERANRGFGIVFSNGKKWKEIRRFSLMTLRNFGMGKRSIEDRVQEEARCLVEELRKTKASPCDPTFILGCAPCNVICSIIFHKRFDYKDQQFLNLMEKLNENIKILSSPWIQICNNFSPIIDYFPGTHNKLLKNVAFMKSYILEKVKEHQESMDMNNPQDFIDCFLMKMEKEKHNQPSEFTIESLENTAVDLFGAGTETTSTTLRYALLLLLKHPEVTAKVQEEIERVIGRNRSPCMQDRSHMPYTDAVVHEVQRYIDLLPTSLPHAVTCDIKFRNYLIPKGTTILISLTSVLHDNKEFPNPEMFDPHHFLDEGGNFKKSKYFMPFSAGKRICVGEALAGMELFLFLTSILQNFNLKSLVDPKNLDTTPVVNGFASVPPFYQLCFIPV

Which results are given for `C[C@H](N)C1CCC(C(=O)Nc2ccncc2)CC1` (stereo partly specified)?
AC50 [1]: 15.8 µM (inconclusive); AC50 [2]: 15.8 µM (inconclusive)

Which IC50 [3] does the source give for `CCc1nnc(NC(=O)CSc2nnc(COc3cccc(C)c3)o2)s1` here?
The IC50 was > 100 µM (inactive).

Which EC50 [4] does the source give for `O=C(O)c1cc(-c2cccc3ccccc23)nc2ccccc12` here?
The EC50 was > 195 µM (not active).

What about the IC50 [3] of the same molecule?
The IC50 was > 100 µM (inactive).

Which IC50 [3] does the source give for `CCN(CC)S(=O)(=O)c1cccc(-c2nnc(SCC(=O)c3cc(C)n(C4CC4)c3C)o2)c1` here?
The IC50 was > 100 µM (inactive).

For `CCn1c(SCC(=O)Nc2ccc(NC(=O)c3cccs3)cc2)nnc1-c1cccnc1`, which IC50 [3] is on record?
The IC50 was > 100 µM (inactive).

For `O=C(CSc1c[nH]c2ccccc12)N1CCOCC1`, which AC50 [5] is on record?
The AC50 was 17.8 µM (inconclusive).

For `COc1cccc(Nc2ncc3nc(-c4cn(C)c5ccccc45)c(=O)n(CCC#N)c3n2)c1`, which AC50 [1] is on record?
Its AC50 is 1.58 µM (inconclusive).

What about the AC50 [5] of the same molecule?
Its AC50 is 20 µM (inconclusive).

For `c1ccc(CN2CC[C@@]3(CCCNC3)C2)cc1`, which AC50 [1] is on record?
The AC50 was 10 µM (inconclusive).

And the AC50 [2]?
The AC50 was 15.8 µM (inconclusive).

With `c1ccc(CSc2nnc(-c3cccs3)o2)cc1` as the molecule, how does the IC50 [3] read?
Its IC50 is 30.2 µM (active).

Which EC50 [6] does the source give for `Cc1ccc(-c2[nH]ncc2/C=C(\C#N)C(=O)NC2CCCCC2)cc1` here?
The EC50 was 71.5 µM (active).

What about the IC50 [3] of the same molecule?
Its IC50 is > 100 µM (inactive).

What about the EC50 [7] of the same molecule?
The EC50 was > 120 µM (not active).

What does the source list for `O=C(COC(=O)c1cccc(S(=O)(=O)N2CCOCC2)c1)Nc1nc(-c2ccccc2Cl)cs1`?
AC50 [1]: 11.2 µM (inconclusive); AC50 [5]: 8.91 µM (inconclusive)

What does the source list for `O=C(NC1(C(F)(F)F)NC(=O)N(Cc2cccnc2)C1=O)c1ccccc1` (stereo unspecified)?
AC50 [1]: 0.891 µM (inconclusive); EC50 [6]: > 120 µM (not active); EC50 [8]: > 120 µM (not active); AC50 [9]: 17.8 µM (inconclusive); EC50 [7]: > 120 µM (not active)

Which IC50 [3] does the source give for `Cc1c(C)n(C)c2ccc(C(=O)NCCN3CCOCC3)cc12` here?
The IC50 was > 100 µM (inactive).

Which IC50 [3] does the source give for `O=C(NCc1nnc(S)n1-c1ccc(F)cc1)c1ccc(S(=O)(=O)N2CCOCC2)cc1` here?
Its IC50 is > 100 µM (inactive).

For `CN(Cc1ccc(-n2cccn2)cc1)C(=O)c1cnn2c1NC(c1ccco1)CC2C(F)(F)F` (stereo unspecified), which EC50 [6] is on record?
Its EC50 is > 120 µM (not active).

And the EC50 [8]?
The EC50 was > 120 µM (not active).

And the EC50 [7]?
Its EC50 is 31.5 µM (active).

Which AC50 [5] does the source give for `O=C(CSc1nnnn1-c1ccccc1)NCc1cccs1` here?
The AC50 was 31.6 µM (inconclusive).

Which AC50 [1] does the source give for `Cn1cccc1C(=O)N1CCC2(CCCN(Cc3ccc(C#N)cc3)C2)CC1` here?
The AC50 was 15.8 µM (inconclusive).

And the AC50 [5]?
The AC50 was 12.6 µM (inconclusive).

For `Brc1ccc(CSc2nnc(-c3cccnc3)o2)cc1`, which IC50 [3] is on record?
The IC50 was 54.5 µM (inactive).

For `CCOc1c2ccc(C(=O)NCc3ccc(OC(F)(F)F)cc3)cc2nn1CC`, which AC50 ([10]; read-out: AC50) is on record?
Its AC50 is 39.8 µM (inconclusive).

What about the AC50 [2] of the same molecule?
Its AC50 is 25.1 µM (inconclusive).

And the AC50 [9]?
Its AC50 is 39.8 µM (inconclusive).

What about the AC50 [5] of the same molecule?
Its AC50 is 14.1 µM (inconclusive).

What does the source list for `N#C/C=C1\n2c(nc3ccccc32)OC12CCCCC2`?
EC50 [6]: > 120 µM (not active); EC50 [8]: > 120 µM (not active); EC50 [7]: > 120 µM (not active)

Which AC50 [1] does the source give for `CC(=O)N1CCC2(CCCN(Cc3cc(C(F)(F)F)cc(C(F)(F)F)c3)C2)CC1` here?
The AC50 was 15.8 µM (inconclusive).

What about the AC50 [2] of the same molecule?
The AC50 was 39.8 µM (inconclusive).

With `Cc1cc(C)n(CC(O)Cn2c(C)c(C)c3ccccc32)n1` (stereo unspecified) as the molecule, how does the IC50 [3] read?
Its IC50 is > 100 µM (inactive).

Which AC50 [1] does the source give for `COc1ccc(C(=O)N2CCC3(CC2)CN(Cc2ccc(C#N)cc2)C3)cc1` here?
The AC50 was 0.631 µM (inconclusive).

What about the AC50 [2] of the same molecule?
Its AC50 is 12.6 µM (inconclusive).

Which AC50 [5] does the source give for `Nc1nnnn1CCO` here?
Its AC50 is 6.31 µM (inconclusive).

With `O=C(Nc1ccccc1N1CCOCC1)c1ccc(S(=O)(=O)NCc2ccco2)cc1` as the molecule, how does the EC50 [11] read?
Its EC50 is > 150 µM (inactive).

Which AC50 [5] does the source give for `COC(=O)CCC(=O)NNC(=O)c1ccc(Br)cc1` here?
The AC50 was 11.2 µM (inconclusive).

With `O=C1COc2ccc(OCc3ccc(F)cc3)cc21` as the molecule, how does the AC50 [5] read?
Its AC50 is 7.08 µM (inconclusive).

What does the source list for `CC(=O)Nc1nnc(CCN2CCCCC2)s1`?
AC50 [10]: inconclusive; AC50 [2]: 1.26 µM (inconclusive)

For `Cc1ccc(CSc2nc3c(c(=O)[nH]c(=O)n3C)n2CCC(C)C)cc1`, which EC50 [6] is on record?
The EC50 was 19.4 µM (active).

What about the EC50 [8] of the same molecule?
The EC50 was 24.8 µM (active).

What about the EC50 [7] of the same molecule?
Its EC50 is 16.2 µM (active).

For `CCNc1ncc2nc(-c3cccc(C#N)c3)c(=O)n(C)c2n1`, which AC50 [1] is on record?
The AC50 was 31.6 µM (inconclusive).

And the AC50 [2]?
Its AC50 is 2 µM (inconclusive).

With `Cc1cnc(CNc2ncnc3ccc(-c4ccccc4C(F)(F)F)cc23)cn1` as the molecule, how does the AC50 ([10]; read-out: AC50) read?
The AC50 was 20 µM (inconclusive).

And the AC50 [2]?
The AC50 was 25.1 µM (inconclusive).

What does the source list for `O=C(NCC1CCCO1)c1nn2c(c1Cl)NC(c1ccc(F)cc1)CC2C(F)(F)F` (stereo unspecified)?
AC50 [1]: 14.1 µM (inconclusive); AC50 [5]: 12.6 µM (inconclusive)

What does the source list for `Cc1ccc(S(=O)(=O)N2CCCC(C(=O)NCCCN3CCCCC3C)C2)cc1` (stereo unspecified)?
AC50 [10]: inconclusive; AC50 [2]: 17.8 µM (inconclusive)

For `O=C(OCCN1CCOCC1)C1(c2ccccc2)CCCCC1`, which AC50 ([10]; read-out: AC50) is on record?
The AC50 was 6.31 µM (inconclusive) and 10 µM (inconclusive).

What about the AC50 [2] of the same molecule?
Its AC50 is 12.6 µM (inconclusive) and 6.31 µM (inconclusive).

And the AC50 [9]?
Its AC50 is 10 µM (inconclusive) and 15.8 µM (inconclusive).

And the AC50 [5]?
Its AC50 is 31.6 µM (inconclusive).

With `CN(C)c1ccc(/N=C/c2cccn2C)cc1` as the molecule, how does the EC50 [11] read?
The EC50 was 25.9 µM (active).
